For orientation: IC50 means the concentration needed to halve the response being measured. Read a high IC50 as weaker potency in that assay.

IC50 data for 23 compounds are collected here from patent US20250353848A1, “HETEROCYCLIC PAD4 INHIBITORS” (Celgene Corporation, priority 2022, published 2025).

For the assay, the target named is hPAD4 enzyme (Homo sapiens, UniProt Q9UM07). The experiment in a line: RFMS Assay 1 (rapid-fire mass spectrum PAD4 inhibition assay, BAEE substrate). To be noted: 5 nM hPAD4 enzyme, 250 μM BAEE, 30 mins compound and enzyme preincubation at 37° C., 90 min enzyme/substrate reaction. It is filed as biochemical. How it is done: Compounds were solubilized in 100% DMSO to achieve a 10 mM compound concentration. Compound stock solutions were stored at RT. A series of dilutions were prepared in DMSO and mixed 8 times with 20 μL mixing volume. Final top concentration of compound in the assay is 50 μM. Final assay conditions were as follows: • Reaction volume: 26 μl • Assay buffer: 25 mM hepes, pH 7.5, 5 mM NaCl, 1 mM DTT, 0.2 mg/ml BSA, 0.01% CHAPS, 50 μM Calcium, and 5 μM TPEN • Final concentrations: 5 nM hPAD4 enzyme, 250 μM BAEE, and 0.5% DMSO • Total incubation time: 30 mins compound and enzyme preincubation at 37° C., 90 min enzyme/substrate reaction, 30 min reaction with phenyl glyoxal at 37° C. • Stop solution: 40 μl 5% TCA in ACN
Sequence of hPAD4 enzyme (Q9UM07 whole entry): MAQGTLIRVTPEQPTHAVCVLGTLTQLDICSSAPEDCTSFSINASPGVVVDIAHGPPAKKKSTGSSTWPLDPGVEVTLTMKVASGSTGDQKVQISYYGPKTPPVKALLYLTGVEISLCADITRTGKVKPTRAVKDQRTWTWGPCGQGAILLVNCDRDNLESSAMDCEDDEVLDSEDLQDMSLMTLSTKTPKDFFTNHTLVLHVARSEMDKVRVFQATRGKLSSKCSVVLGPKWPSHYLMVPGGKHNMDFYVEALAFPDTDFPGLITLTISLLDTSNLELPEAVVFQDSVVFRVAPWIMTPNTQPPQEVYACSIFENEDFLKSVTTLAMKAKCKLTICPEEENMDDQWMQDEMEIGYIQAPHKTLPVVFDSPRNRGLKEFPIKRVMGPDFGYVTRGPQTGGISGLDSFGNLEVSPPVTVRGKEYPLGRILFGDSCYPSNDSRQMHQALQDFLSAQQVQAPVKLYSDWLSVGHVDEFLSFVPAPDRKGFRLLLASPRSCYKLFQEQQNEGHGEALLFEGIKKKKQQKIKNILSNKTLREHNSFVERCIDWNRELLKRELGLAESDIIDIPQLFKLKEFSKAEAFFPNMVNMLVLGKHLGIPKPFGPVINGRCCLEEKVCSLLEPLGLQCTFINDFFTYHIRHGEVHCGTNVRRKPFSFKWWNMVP
0.13 μL of compound solution was added to 13 μL of 10 nM PAD4 in assay buffer. After 30 min 13 μl of 500 μM of BAEE was added in 25 mM hepes, pH 7.5, 5 mM NaCl, 1 mM DTT, 0.2 mg/ml BSA, 0.01% CHAPS, 50 µM Calcium, […] was added and the reaction incubated for 90 min at 37° C. The enzymatic reaction was quenched by addition of 15 μl of 6.1N TCA, 100% Final Concentration is 20%, 35 μl of 8.5 mM phenyl glyoxal (final concentration 4 mM) is then added and the reaction is incubated for 30 min at 37° C.
After 30 minutes the plates are spun down to remove all precipitate. The enzyme reaction was quenched with an equal volume of methanol containing internal standard (modified citrulline). Samples were loaded onto the Rapid Fire RF300 system (Agilent) wherein they were first sipped for 1000 ms and then directly loaded to a C18 separations cartridge using a mixture of acetonitrile containing 0.01% formic acid for 3000 ms desalting. The flow rate of the mobile phase was 1.5 ml/min. Once the samples were eluted from the cartridge, a mobile phase of acetonitrile containing 0.01% formic acid was used to move the samples into the mass spectrometer for 4000 ms at a flow rate of 1.25 ml/min/Sciex AP15500 triple quadrupole mass spectrometer (Applied Biosystems) equipped with ESI was used to analyze the peptidyl citrulline and internal standard ions.
MRM transition of product and internal standard were monitored at m/z 424.5 to 350.4 and m/z 293 to 247 respectively. The dwell time for each transition was set at 200 ms, and the ESI voltage was used at 5500 with a source temperature of 400° C. Extracted ion peaks for each transition were integrated using the Rapid Fire Integrator software. Peak area of analyte was normalized with internal standard.).
The compound `CC(COc1cccc2cc(-c3nc4cc5c(nc4n3C)CCN(C[C@H](N)CF)C5=O)n(CC3CC3)c12)c1cccnc1` (single isomer, unassigned) [Example 45a] had an IC50 not above 10 nM.

The compound `C[C@H](COc1cccc2cc(-c3nc4cc5c(nc4n3C)CCN(C[C@@H](C)N)C5=O)n(CC3CC3)c12)n1cnc(F)c1` [Example 81, 7-((R)-2-aminopropyl)-2-(1-(cyclopropylmethyl)-7-((R)-2-(4-fluoro-1H-imidazol-1-yl)propoxy)-1H-indol-2-yl)-3-methyl-3,5,6,7-tetrahydro-8H-imidazo[4,5-b][1,6]naphthyridin-8-one] yielded a half-maximal inhibitory concentration (IC50) not above 10 nM.

In turn, `CC(COc1cccc2cc(-c3nc4cc5c(nc4n3C)CCN(C[C@H](N)CF)C5=O)n(CC3CC3)c12)c1cccnc1` (single isomer, unassigned) [Example 45b] yielded a half-maximal inhibitory concentration (IC50) not above 10 nM.

In turn, `COc1cccc2cc(-c3nc4cc5c(nc4n3C)CCN(C[C@H](N)CF)C5=O)n(CCOC(F)F)c12` [Example 6, (S)-7-(2-amino-3-fluoropropyl)-2-(1-(2-(difluoromethoxy)ethyl)-7-methoxy-1H-indol-2-yl)-3-methyl-3,5,6,7-tetrahydro-8H-imidazo[4,5-b][1,6]naphthyridin-8-one] came in with an IC50 of 101 to 500 nM.

Take `Cn1c(-c2cc3cccc(OCCc4ccncc4)c3n2CC2CC2)nc2cc3c(nc21)CCN(C[C@H](N)CF)C3=O` [Example 57, (S)-7-(2-amino-3-fluoropropyl)-2-(1-(cyclopropylmethyl)-7-(2-(pyridin-4-yl)ethoxy)-1H-indol-2-yl)-3-methyl-3,5,6,7-tetrahydro-8H-imidazo[4,5-b][1,6]naphthyridin-8-one]: the IC50 fell in the range of 11 to 100 nM.

`Cn1c(-c2cc3cccc(NC(=O)Cn4ccnc4)c3n2CC2CC2)nc2cc3c(nc21)CCN(C[C@H](N)CF)C3=O` [Example 100, (S)—N-(2-(7-(2-amino-3-fluoropropyl)-3-methyl-8-oxo-5,6,7,8-tetrahydro-3H-imidazo[4,5-b][1,6]naphthyridin-2-yl)-1-(cyclopropylmethyl)-1H-indol-7-yl)-2-(1H-imidazol-1-yl)acetamide] displayed an IC50 of 501 to 1000 nM.

As to `Cn1c(-c2cc3cccc(/C=C/Cn4cncc4F)c3n2CC2CC2)nc2cc3c(nc21)CCN(C[C@H](N)CF)C3=O` [Example 98, (S,E)-7-(2-amino-3-fluoropropyl)-2-(1-(cyclopropylmethyl)-7-(3-(5-fluoro-1H-imidazol-1-yl)prop-1-en-1-yl)-1H-indol-2-yl)-3-methyl-3,5,6,7-tetrahydro-8H-imidazo[4,5-b][1,6]naphthyridin-8-one], the IC50 was in the range of 101 to 500 nM.

As to `Cn1c(-c2cc3cccc(OCCc4cn[nH]c4)c3n2CC2CC2)nc2cc3c(nc21)CCN(C[C@H](N)CF)C3=O` [Example 50, (S)-2-(7-(2-(1H-pyrazol-4-yl)ethoxy)-1-(cyclopropylmethyl)-1H-indol-2-yl)-7-(2-amino-3-fluoropropyl)-3-methyl-3,5,6,7-tetrahydro-8H-imidazo[4,5-b][1,6]naphthyridin-8-one], the IC50 was not above 10 nM.

Take `COc1cccc2cc(-c3nc4cc5c(nc4n3C)CCN(C[C@@H](C)N)C5=O)n(Cc3ncco3)c12` [Example 25, (R)-7-(2-aminopropyl)-2-(7-methoxy-1-(oxazol-2-ylmethyl)-1H-indol-2-yI)-3-methyl-3,5,6,7-tetrahydro-8H-imidazo[4,5-b][1,6]naphthyridin-8-one]: the IC50 is 101 to 500 nM.

With `C[C@@H](COc1cccc2cc(-c3nc4cc5c(nc4n3C)CCN(C[C@H](N)CF)C5=O)n(CC3CC3)c12)n1ccnc1` [Example 80, 2-(7-((S)-2-(1H-imidazol-1-yl)propoxy)-1-(cyclopropylmethyl)-1H-indol-2-yl)-7-((S)-2-amino-3-fluoropropyl)-3-methyl-3,5,6,7-tetrahydro-8H-imidazo[4,5-b][1,6]naphthyridin-8-one], the IC50 fell in the range of 11 to 100 nM.

The compound `Cc1nnc(CCOc2cccc3cc(-c4nc5cc6c(nc5n4C)CCN(C[C@H](N)CF)C6=O)n(CC4CC4)c23)s1` [Example 55, (S)-7-(2-amino-3-fluoropropyl)-2-(1-(cyclopropylmethyl)-7-(2-(5-methyl-1,3,4-thiadiazol-2-yl)ethoxy)-1H-indol-2-yl)-3-methyl-3,5,6,7-tetrahydro-8H-imidazo[4,5-b][1,6]naphthyridin-8-one] had a half-inhibitory concentration (IC50) of 101 to 500 nM.

Take `COc1nccc2cc(-c3nc4cc5c(nc4n3C)CCN(C[C@H](N)CF)C5=O)n(CC(F)(F)F)c12` [Example 21, (S)-7-(2-amino-3-fluoropropyl)-2-(7-methoxy-1-(2,2,2-trifluoroethyl)-1H-pyrrolo[2,3-c]pyridin-2-yl)-3-methyl-3,5,6,7-tetrahydro-8H-imidazo[4,5-b][1,6]naphthyridin-8-one]: the IC50 is more than 1000 nM.

`C[C@@H](Cn1ccnc1)Oc1cccc2cc(-c3nc4cc5c(nc4n3C)CCN(C[C@H](N)CF)C5=O)n(CC3CC3)c12` [Example 63, 2-(7-(((S)-1-(1H-imidazol-1-yl)propan-2-yl)oxy)-1-(cyclopropylmethyl)-1H-indol-2-yl)-7-((S)-2-amino-3-fluoropropyl)-3-methyl-3,5,6,7-tetrahydro-8H-imidazo[4,5-b][1,6]naphthyridin-8-one]: the IC50 is 11 to 100 nM.

In turn, `CC(C(F)Oc1cccc2cc(-c3nc4cc5c(nc4n3C)CCN(C[C@H](N)CF)C5=O)n(CC3CC3)c12)n1ccnc1` (single isomer, unassigned) [Example 78a] registered an IC50 of 11 to 100 nM.

On to `C[C@@H](COc1cccc2cc(-c3nc4cc5c(nc4n3C)CCN(C[C@H](N)CF)C5=O)n(CC3CC3)c12)n1cncc1C#N` [Example 88, 1-((S)-1-((2-(7-((S)-2-amino-3-fluoropropyl)-3-methyl-8-oxo-5,6,7,8-tetrahydro-3H-imidazo[4,5-b][1,6]naphthyridin-2-yl)-1-(cyclopropylmethyl)-1H-indol-7-yl)oxy)propan-2-yl)-1H-imidazole-5-carbonitrile], for which the IC50 fell in the range of 101 to 500 nM.

The compound `Cn1c(-c2cc3cccc(OCC(O)c4cnco4)c3n2CC2CC2)nc2cc3c(nc21)CCN(C[C@H](N)CF)C3=O` (single isomer, unassigned) [Example 61a] gave an IC50 of 101 to 500 nM.

Compound `Cn1c(-c2cc3cccc(OCCc4cccnc4)c3n2CC2CC2)nc2cc3c(nc21)CCN(C[C@H](N)CF)C3=O` [Example 56, (S)-7-(2-amino-3-fluoropropyl)-2-(1-(cyclopropylmethyl)-7-(2-(pyridin-3-yl)ethoxy)-1H-indol-2-yl)-3-methyl-3,5,6,7-tetrahydro-8H-imidazo[4,5-b][1,6]naphthyridin-8-one] came in with a 50% inhibitory concentration (IC50) not above 10 nM.

In turn, `COc1cccc2cc(-c3nc4cc5c(nc4n3C)CCN(C[C@H](N)CF)C5=O)n(CC(F)F)c12` [Example 3, (S)-7-(2-amino-3-fluoropropyl)-2-(1-(2,2-difluoroethyl)-7-methoxy-1H-indol-2-yl)-3-methyl-3,5,6,7-tetrahydro-8H-imidazo[4,5-b][1,6]naphthyridin-8-one] gave an IC50 of 101 to 500 nM.

Compound `Cn1c(-c2cc3cccc(OCC(O)c4cnco4)c3n2CC2CC2)nc2cc3c(nc21)CCN(C[C@H](N)CF)C3=O` (single isomer, unassigned) [Example 61b] displayed an IC50 of 101 to 500 nM.

For `COc1cccc2cc(-c3nc4cc5c(nc4n3C)CCN(C[C@H]3COCCN3)C5=O)n(CCOC(F)F)c12` [Example 28, (S)-2-(1-(2-(difluoromethoxy)ethyl)-7-methoxy-1H-indol-2-yl)-3-methyl-7-(morpholin-3-ylmethyl)-3,5,6,7-tetrahydro-8H-imidazo[4,5-b][1,6]naphthyridin-8-one], the IC50 lay within 501 to 1000 nM.

Regarding `Cn1c(-c2cc3cccc(OCCn4ccnc4Cl)c3n2CC2CC2)nc2cc3c(nc21)CCN(C[C@H](N)CF)C3=O` [Example 93, (S)-7-(2-amino-3-fluoropropyl)-2-(7-(2-(2-chloro-1H-imidazol-1-yl)ethoxy)-1-(cyclopropylmethyl)-1H-indol-2-yl)-3-methyl-3,5,6,7-tetrahydro-8H-imidazo[4,5-b][1,6]naphthyridin-8-one], the IC50 was in the range of 11 to 100 nM.

For `Cn1c(-c2cc3cccc(OCC(F)n4ccnc4)c3n2CC2CC2)nc2cc3c(nc21)CCN(C[C@H](N)CF)C3=O` (single isomer, unassigned) [Example 79b], the IC50 was in the range of 11 to 100 nM.

`COCCn1c(-c2nc3cc4c(nc3n2C)CCN(C[C@H](N)CF)C4=O)cc2cccc(OC(F)Cn3ccnc3)c21` (single isomer, unassigned) [Example 77a] displayed an IC50 of 11 to 100 nM.
